Measured values published in publication PMC8041276 (ACS Chemical Neuroscience, 2021).

Columns and labels:
[1] = test system: Salmonella typhimurium TA100; details: without S9 fraction
Method: Ames microplate fluctuation protocol (MPF) assay was performed with Salmonella typhimurium strain TA100, enabling the detection base substitution mutations. Bacterial strain and exposure and indicator medium were purchased from Xenometrix AG (Allschwil, Switzerland). The mutagenic potential of tested structures was evaluated by incubation of bacteria, incapable of producing histidine, with particular concentration of test compounds for 90 min in exposure medium, containing limited amount of histidine. The occurrence of reversion events to histidine prototrophy was observed as a growth of bacteria in the indicator medium without histidine after 48 h of incubation in room temperature. Bacterial growth in 384-well plates was visualized by color change of medium from violet to yellow due to addition of pH indicator dye. Compound was classified as mutagenic, if the fold increase in number of positive wells over the medium control baseline was greater than 2.0. The solvent control baseline was defined as the mean number of positive wells in the negative control sample, increased by one standard deviation. 1% DMSO in media was used as a negative and 4-nitroquinoline N-oxide (NQNO) as positive control. The experiment was performed in triplicate. Fraction S9 was not added.

HepG2 cells = experiment: LDH assay, hepatotoxicity in HepG2 cells; assay type: cell-based, human; details: HepG2, 24 h, 0.1–25 μM
Method: Human hepatocellular carcinoma cells (HepG2) were cultured using standard procedures (protocol from ATCC). Cells were cultured in Eagle’s minimum essential medium (EMEM) in flasks with an area of 25 cm^2 (Falcon), supplemented with 10% of fetal bovine serum (FBS, Life Technologies) with the addition of 100 IU/mL penicillin (Sigma-Aldrich) and 100 μg/mL streptomycin (Sigma-Aldrich) and incubated at 37 °C in a humidified atmosphere with 5% CO2.
Cells were seeded at density 2 × 10^4 cells/per well in […] plates. After 24 h, compound 27 and reference standard DOX (highly cytotoxic agent) were added to final concentrations of 0.1–150 μM. After 24 h incubation, plates were centrifuged (200g, 2 min) and 50 μL of the supernatant was transferred into the corresponding 96-well plate. Subsequently, 50 μL of LDH-reaction mixture prepared according to the manufacturer’s instructions (Invitrogen) was added to each well. Incubation was conducted in darkness for 30 min at room temperature. Next, stop solution was added and absorbance was measured at 490 nm (A490) using a plate reader (Spectra Max iD3, Molecular Devices). Cytotoxicity was determined as follows: cytotoxicity (%) = [(compound LDH activity – spontaneous LDH activity)/(maximum LDH activity – spontaneous LDH activity)] × 100. The maximum LDH activity was prepared by treating cells with lysis buffer. […]

serotonin 5-HT3 receptor = target: T1, serotonin 5-HT3 receptor (Homo sapiens, UniProt P46098); experiment: Eurofins Cerep off-target binding, % inhibition at 1 μM
T1 construct: Eurofins Cerep (contract assay)
T1 sequence (P46098 24-478): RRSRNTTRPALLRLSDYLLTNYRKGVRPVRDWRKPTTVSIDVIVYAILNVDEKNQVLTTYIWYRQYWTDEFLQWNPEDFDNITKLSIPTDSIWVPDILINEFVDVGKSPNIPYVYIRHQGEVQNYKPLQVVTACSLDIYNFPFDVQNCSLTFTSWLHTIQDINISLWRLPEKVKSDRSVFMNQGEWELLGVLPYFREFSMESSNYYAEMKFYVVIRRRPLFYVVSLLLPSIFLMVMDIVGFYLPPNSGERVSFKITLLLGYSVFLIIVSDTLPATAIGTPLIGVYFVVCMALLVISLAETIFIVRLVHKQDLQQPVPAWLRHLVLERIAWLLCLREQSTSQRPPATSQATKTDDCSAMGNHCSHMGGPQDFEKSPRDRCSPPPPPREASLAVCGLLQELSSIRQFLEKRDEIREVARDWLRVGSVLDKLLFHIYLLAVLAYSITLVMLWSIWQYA
Method: (§1) Additionally, the affinity of compound 27 at the adrenergic α1A, muscarinic M1, histaminergic H1, dopaminergic D3, serotoninergic 5-HT2C, 5-HT3 receptors, serotonin transporter (SERT), and the human ether-a-go-go-related gene (hERG) channel were evaluated in Eurofins Cerep.

α1A adrenoreceptor = target: T2, α1A adrenoreceptor (Homo sapiens, UniProt P35348); experiment: as above
T2 construct: Eurofins Cerep (contract assay)
T2 sequence (P35348 1-466): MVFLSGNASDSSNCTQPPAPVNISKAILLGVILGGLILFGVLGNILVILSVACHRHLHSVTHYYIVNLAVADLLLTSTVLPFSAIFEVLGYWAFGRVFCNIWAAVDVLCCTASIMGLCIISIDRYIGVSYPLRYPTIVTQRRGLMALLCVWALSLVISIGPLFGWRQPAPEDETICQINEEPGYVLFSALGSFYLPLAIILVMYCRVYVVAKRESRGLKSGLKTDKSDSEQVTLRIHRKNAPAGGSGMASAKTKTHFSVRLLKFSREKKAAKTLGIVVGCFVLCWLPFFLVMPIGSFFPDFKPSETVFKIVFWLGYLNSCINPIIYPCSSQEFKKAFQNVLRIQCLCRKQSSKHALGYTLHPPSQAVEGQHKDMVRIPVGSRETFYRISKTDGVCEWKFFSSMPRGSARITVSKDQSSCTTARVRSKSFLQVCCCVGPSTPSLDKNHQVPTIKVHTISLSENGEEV
Method: as §1

hERG channel = target: T3, hERG channel (Homo sapiens, UniProt Q12809); experiment: as above
T3 construct: Eurofins Cerep (contract assay)
Method: as §1

H1 histaminic receptor = target: T4, H1 histaminic receptor (Homo sapiens, UniProt P35367); experiment: as above
T4 construct: Eurofins Cerep (contract assay)
Method: as §1

T3 sequence (Q12809 whole entry): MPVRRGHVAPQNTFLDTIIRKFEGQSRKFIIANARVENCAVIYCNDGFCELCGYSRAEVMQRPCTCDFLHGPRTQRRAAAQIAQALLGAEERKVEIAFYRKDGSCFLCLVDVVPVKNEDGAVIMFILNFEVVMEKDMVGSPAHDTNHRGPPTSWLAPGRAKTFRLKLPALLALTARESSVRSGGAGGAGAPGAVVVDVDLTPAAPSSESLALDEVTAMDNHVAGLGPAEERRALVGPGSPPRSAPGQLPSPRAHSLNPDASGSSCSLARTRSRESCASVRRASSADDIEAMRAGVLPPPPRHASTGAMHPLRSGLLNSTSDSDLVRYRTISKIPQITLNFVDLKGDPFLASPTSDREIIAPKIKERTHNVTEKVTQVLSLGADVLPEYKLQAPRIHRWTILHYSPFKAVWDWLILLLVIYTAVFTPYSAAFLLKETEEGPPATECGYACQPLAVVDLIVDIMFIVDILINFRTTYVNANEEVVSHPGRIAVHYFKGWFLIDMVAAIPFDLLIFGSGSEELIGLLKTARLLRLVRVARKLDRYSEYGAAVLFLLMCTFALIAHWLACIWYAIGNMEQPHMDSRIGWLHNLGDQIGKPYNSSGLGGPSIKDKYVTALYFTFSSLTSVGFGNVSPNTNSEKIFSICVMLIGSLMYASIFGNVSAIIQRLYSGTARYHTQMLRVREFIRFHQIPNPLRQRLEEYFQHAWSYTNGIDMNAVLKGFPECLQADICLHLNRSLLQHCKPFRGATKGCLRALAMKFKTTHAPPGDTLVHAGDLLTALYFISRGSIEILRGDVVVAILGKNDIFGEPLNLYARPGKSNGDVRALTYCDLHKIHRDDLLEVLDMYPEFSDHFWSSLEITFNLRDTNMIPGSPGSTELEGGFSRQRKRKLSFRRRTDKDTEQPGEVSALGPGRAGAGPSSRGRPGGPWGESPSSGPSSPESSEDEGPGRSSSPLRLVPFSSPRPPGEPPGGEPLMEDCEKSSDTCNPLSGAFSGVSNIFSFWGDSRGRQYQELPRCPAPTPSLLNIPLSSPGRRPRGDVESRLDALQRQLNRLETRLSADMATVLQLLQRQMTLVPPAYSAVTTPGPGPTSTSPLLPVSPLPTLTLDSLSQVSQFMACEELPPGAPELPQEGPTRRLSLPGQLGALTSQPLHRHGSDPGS
T4 sequence (P35367 whole entry): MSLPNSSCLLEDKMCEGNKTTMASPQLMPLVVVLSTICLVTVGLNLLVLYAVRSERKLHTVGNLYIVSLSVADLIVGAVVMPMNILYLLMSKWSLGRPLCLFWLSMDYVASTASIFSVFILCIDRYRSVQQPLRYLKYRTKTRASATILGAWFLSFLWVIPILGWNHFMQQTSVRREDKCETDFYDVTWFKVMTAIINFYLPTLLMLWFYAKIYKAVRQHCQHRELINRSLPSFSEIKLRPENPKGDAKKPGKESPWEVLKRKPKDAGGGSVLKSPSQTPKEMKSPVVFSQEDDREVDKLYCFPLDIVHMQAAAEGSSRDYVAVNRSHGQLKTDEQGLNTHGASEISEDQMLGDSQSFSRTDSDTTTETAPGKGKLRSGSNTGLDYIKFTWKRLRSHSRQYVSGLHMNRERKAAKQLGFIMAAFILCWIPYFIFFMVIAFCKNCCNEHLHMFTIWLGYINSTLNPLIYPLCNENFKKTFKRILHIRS

## O=C(N[C@@H]1CCNC1)c1ccn(S(=O)(=O)c2cccc(Cl)c2)c1-c1ccc(F)cc1 [Compound 27, (R)-2-(4-Fluorophenyl)-1-[(3-chlorophenyl)sulfonyl]-N-(pyrrolidin-3-yl)-1H-pyrrole-3-carboxamide]
[1]
  mutagenicity (Ames test): non-mutagenic
HepG2 cells
  cell membrane integrity (LDH test): did not affect the cell membrane integrity
Serotonin 5-HT3 receptor
  inhibition at 1 µM: 2%
α1A adrenoreceptor
  inhibition at 1 µM: 15%
hERG channel
  inhibition at 1 µM: 1%
H1 histaminic receptor
  inhibition at 1 µM: 9%
